Measurements from patent US6358885B1, “Substituted phenylheterocyclic herbicides” (Mississippi State University, priority 1992, dated 2002).

Assays:
sugar beet = experiment: Test C preemergence/postemergence greenhouse plant response rating 0 to 100; format: in vivo, Beta vulgaris; details: POSTEMERGENCE; for Plant response rating, Sugar beet: 0 to 100 scale
Method in brief: (§1)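 Compounds in non-phytotoxic solvent went onto sandy loam before emergence (seeded one day earlier) or onto plants at the one-to-four leaf stage. Duck salad was treated via flood water (~2.5 cm, maintained) over silt loam.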

chickweed = experiment: as above; format: in vivo, Stellaria media; details: POSTEMERGENCE; for Plant response rating, Chickweed: 0 to 100 scale
Method in brief: as §1

pigweed = experiment: as above; format: in vivo, Amaranthusretroflexus; details: POSTEMERGENCE; for Plant response rating Pigweed: 0 to 100 scale
Method in brief: as §1

purple nutsedge = experiment: Test B preemergence/postemergence greenhouse plant response rating 0 to 10; format: in vivo, Cyperus rotundus; details: 0 to 10 scale
Method in brief: (§2)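 Planted seeds are treated preemergence with compound dissolved in a non-phytotoxic solvent, while postemergence applications go onto plants of two to eighteen cm. Plants stay in the greenhouse twelve to sixteen days and are then rated visually relative to controls.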

velvetleaf = experiment: as above; format: in vivo, Abutilon theophrasti; details: 0 to 10 scale
Method in brief: as §2

rape = experiment: as above; format: in vivo, Brassica napus; details: 0 to 10 scale
Method in brief: as §2

barley [1] = experiment: as above; format: in vivo, Hordeum vulgare; details: 0 to 10 scale
Method in brief: as §2

wild buckwheat = experiment: Test C preemergence/postemergence greenhouse plant response rating 0 to 100; format: in vivo, Polygonum convolvulus; details: POSTEMERGENCE; for Plant response rating, Wild buckwheat: 0 to 100 scale
Method in brief: as §1

soybean [2] = experiment: Test B preemergence/postemergence greenhouse plant response rating 0 to 10; format: in vivo, Glycine max; details: 0 to 10 scale
Method in brief: as §2

cheatgrass = experiment: as above; format: in vivo, Bromus secalinus; details: 0 to 10 scale
Method in brief: as §2

blackgrass = experiment: as above; format: in vivo, Alopecurus myosuroides; details: 0 to 10 scale
Method in brief: as §2

barley [3] = experiment: Test C preemergence/postemergence greenhouse plant response rating 0 to 100; format: in vivo, Hordeum vulgare; details: POSTEMERGENCE; for Plant response rating Barley Igri: 0 to 100 scale
Method in brief: as §1

ryegrass = experiment: as above; format: in vivo, Lolium multiflorum; details: POSTEMERGENCE; for Plant response rating Ryegrass: 0 to 100 scale
Method in brief: as §1

crabgrass = experiment: Test B preemergence/postemergence greenhouse plant response rating 0 to 10; format: in vivo, Digitaria spp.; details: 0 to 10 scale
Method in brief: as §2

soybean [4] = experiment: Test C preemergence/postemergence greenhouse plant response rating 0 to 100; format: in vivo, Glycine max; details: POSTEMERGENCE; for Plant response rating, Soybean: 0 to 100 scale
Method in brief: as §1

giant foxtail = experiment: Test B preemergence/postemergence greenhouse plant response rating 0 to 10; format: in vivo, Setaria faberii; details: 0 to 10 scale
Method in brief: as §2

lambsquarters [5] = experiment: as above; format: in vivo, Chenopodium album; details: 0 to 10 scale
Method in brief: as §2

lambsquarters [6] = experiment: Test C preemergence/postemergence greenhouse plant response rating 0 to 100; format: in vivo, Chenopodium album; details: POSTEMERGENCE; for Plant response rating Lambsquarters: 0 to 100 scale
Method in brief: as §1

C=CCN1C(=O)COc2cc(F)c(-c3nn4c(c3Br)CCCC4)cc21 [Compound 41]
Plant response rating, Sugar beet (sugar beet; 62 g/ha): 100
Plant response rating, Sugar beet (sugar beet; 125 g/ha): 100
Plant response rating (0 to 100), Sugar beet (sugar beet; Rate 16 g/ha): 100
Plant response rating (0 to 100), Sugar beet (sugar beet; Rate 31 g/ha): 100
Plant response rating, Chickweed (chickweed; 62 g/ha): 100
Plant response rating, Chickweed (chickweed; 125 g/ha): 100
Plant response rating (0 to 100), Chickweed (chickweed; Rate 16 g/ha): 90
Plant response rating (0 to 100), Chickweed (chickweed; Rate 31 g/ha): 90
Plant response rating Pigweed (pigweed; 62 g/ha): 100
Plant response rating Pigweed (pigweed; 125 g/ha): 100
Plant response rating (0 to 100), Pigweed (pigweed; Rate 16 g/ha): 90
Plant response rating (0 to 100), Pigweed (pigweed; Rate 31 g/ha): 100
Plant response rating, Nutsedge (purple nutsedge; POSTEMERGENCE, Rate 50 g/ha): 4
Plant response rating, Nutsedge (purple nutsedge; PREEMERGENCE, Rate 50 g/ha): 0
Plant response rating, Nutsedge (purple nutsedge; Rate 200 g/ha, POSTEMERGENCE): 4
Plant response rating, Nutsedge (purple nutsedge; Rate 200 g/ha, PREEMERGENCE): 0
Plant response rating, Velvetleaf (velvetleaf; POSTEMERGENCE, Rate 50 g/ha): 10
Plant response rating, Velvetleaf (velvetleaf; PREEMERGENCE, Rate 50 g/ha): 2
Plant response rating, Velvetleaf (velvetleaf; Rate 200 g/ha, POSTEMERGENCE): 10
Plant response rating, Velvetleaf (velvetleaf; Rate 200 g/ha, PREEMERGENCE): 10
Plant response rating, Rape (rape; POSTEMERGENCE, Rate 50 g/ha): 10
Plant response rating, Rape (rape; PREEMERGENCE, Rate 50 g/ha): 10
Plant response rating, Rape (rape; Rate 200 g/ha, POSTEMERGENCE): 10
Plant response rating, Rape (rape; Rate 200 g/ha, PREEMERGENCE): 10
Plant response rating, Barley (barley [1]; POSTEMERGENCE, Rate 50 g/ha): 5
Plant response rating, Barley (barley [1]; POSTEMERGENCE, Rate 200 g/ha): 5
Plant response rating, Barley (barley [1]; PREEMERGENCE, Rate 50 g/ha): 1
Plant response rating, Barley (barley [1]; Rate 200 g/ha, PREEMERGENCE): 1
Plant response rating, Wild buckwheat (wild buckwheat; 62 g/ha): 100
Plant response rating, Wild buckwheat (wild buckwheat; 125 g/ha): 100
Plant response rating (0 to 100), Wild buckwheat (wild buckwheat; Rate 16 g/ha): 95
Plant response rating (0 to 100), Wild buckwheat (wild buckwheat; Rate 31 g/ha): 100
Plant response rating, Soybean (soybean [2]; POSTEMERGENCE, Rate 50 g/ha): 9
Plant response rating, Soybean (soybean [2]; PREEMERGENCE, Rate 50 g/ha): 0
Plant response rating, Soybean (soybean [2]; Rate 200 g/ha, POSTEMERGENCE): 10
Plant response rating, Soybean (soybean [2]; Rate 200 g/ha, PREEMERGENCE): 0
Plant response rating, Cheatgrass (cheatgrass; POSTEMERGENCE, Rate 50 g/ha): 3
Plant response rating, Cheatgrass (cheatgrass; POSTEMERGENCE, Rate 200 g/ha): 5
Plant response rating, Cheatgrass (cheatgrass; PREEMERGENCE, Rate 50 g/ha): 3
Plant response rating, Cheatgrass (cheatgrass; Rate 200 g/ha, PREEMERGENCE): 5
Plant response rating, Blackgrass (blackgrass; POSTEMERGENCE, Rate 50 g/ha): 2
Plant response rating, Blackgrass (blackgrass; POSTEMERGENCE, Rate 200 g/ha): 5
Plant response rating, Blackgrass (blackgrass; PREEMERGENCE, Rate 50 g/ha): 6
Plant response rating, Blackgrass (blackgrass; Rate 200 g/ha, PREEMERGENCE): 7
Plant response rating Barley Igri (barley [3]; 62 g/ha): 50
Plant response rating Barley Igri (barley [3]; 125 g/ha): 60
Plant response rating (0 to 100), Barley Igri (barley [3]; Rate 16 g/ha): 30
Plant response rating (0 to 100), Barley Igri (barley [3]; Rate 31 g/ha): 40
Plant response rating Ryegrass (ryegrass; 62 g/ha): 30
Plant response rating Ryegrass (ryegrass; 125 g/ha): 40
Plant response rating (0 to 100), Ryegrass (ryegrass; Rate 16 g/ha): 10
Plant response rating (0 to 100), Ryegrass (ryegrass; Rate 31 g/ha): 20
Plant response rating, Crabgrass (crabgrass; POSTEMERGENCE, Rate 50 g/ha): 3
Plant response rating, Crabgrass (crabgrass; POSTEMERGENCE, Rate 200 g/ha): 5
Plant response rating, Crabgrass (crabgrass; PREEMERGENCE, Rate 50 g/ha): 0
Plant response rating, Crabgrass (crabgrass; Rate 200 g/ha, PREEMERGENCE): 6
Plant response rating, Soybean (soybean [4]; 62 g/ha): 70
Plant response rating, Soybean (soybean [4]; 125 g/ha): 100
Plant response rating (0 to 100), Soybean (soybean [4]; Rate 16 g/ha): 60
Plant response rating (0 to 100), Soybean (soybean [4]; Rate 31 g/ha): 70
Plant response rating, Giant foxtail (giant foxtail; POSTEMERGENCE, Rate 50 g/ha): 4
Plant response rating, Giant foxtail (giant foxtail; PREEMERGENCE, Rate 50 g/ha): 1
Plant response rating, Giant foxtail (giant foxtail; Rate 200 g/ha, POSTEMERGENCE): 5
Plant response rating, Giant foxtail (giant foxtail; Rate 200 g/ha, PREEMERGENCE): 3
Plant response rating, Lambsquarter (lambsquarters [5]; POSTEMERGENCE, Rate 50 g/ha): 10
Plant response rating, Lambsquarter (lambsquarters [5]; PREEMERGENCE, Rate 50 g/ha): 10
Plant response rating, Lambsquarter (lambsquarters [5]; Rate 200 g/ha, POSTEMERGENCE): 10
Plant response rating, Lambsquarter (lambsquarters [5]; Rate 200 g/ha, PREEMERGENCE): 10
Plant response rating Lambsquarters (lambsquarters [6]; 62 g/ha): 100
Plant response rating Lambsquarters (lambsquarters [6]; 125 g/ha): 100
Plant response rating (0 to 100), Lambsquarters (lambsquarters [6]; Rate 16 g/ha): 85
Plant response rating (0 to 100), Lambsquarters (lambsquarters [6]; Rate 31 g/ha): 100
